Reference: PubChem BioAssay (NCI)
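96-well plates; 48 h exposure; 5 concentrations. Endpoints by linear interpolation between flanking doses. Not reached: highest tested concentration assigned. At the TGI there is no net growth.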

How the values were obtained:
Experiment in all cases: NCI tumour cell line growth inhibition, 48 h
HOP-18 NSCLC = system: HOP-18 NSCLC
RXF-631 renal = system: RXF-631 renal
XF 498 CNS = system: XF 498 CNS
KM20L2 colon = system: KM20L2 colon
SNB-78 CNS = system: SNB-78 CNS
SNB-19 CNS = system: SNB-19 CNS
DMS 273 small cell lung = system: DMS 273 small cell lung
LXFL 529 NSCLC = system: LXFL 529 NSCLC
DLD-1 colon = system: DLD-1 colon
DMS 114 small cell lung = system: DMS 114 small cell lung
CCRF-CEM leukemia = system: CCRF-CEM leukemia
M19-MEL melanoma = system: M19-MEL melanoma
CAKI-1 renal = system: CAKI-1 renal

With `COC1=CC(=O)NCCN1` the TGI (HOP-18 NSCLC) was > 100 µM, the TGI (RXF-631 renal) was > 100 µM and the TGI (XF 498 CNS) was > 100 µM. For the same compound, the TGI (KM20L2 colon) was > 100 µM, the TGI (SNB-78 CNS) was > 100 µM and the TGI (SNB-19 CNS) was > 100 µM. The TGI (DMS 273 small cell lung) was > 100 µM, the TGI (LXFL 529 NSCLC) was > 100 µM and the TGI (DLD-1 colon) was > 100 µM. For the same compound, the TGI (DMS 114 small cell lung) was > 100 µM, the TGI (CCRF-CEM leukemia) was > 100 µM and the TGI (M19-MEL melanoma) was > 100 µM. For the same compound, the TGI (CAKI-1 renal) was > 100 µM.

For `COC[C@@H](N=CN1CCc2cc(OC)c(OC)cc2C1)C(C)(C)C`, the TGI (HOP-18 NSCLC) was > 100 µM, the TGI (RXF-631 renal) was > 100 µM and the TGI (XF 498 CNS) was > 100 µM. The TGI (KM20L2 colon) was > 100 µM, the TGI (SNB-19 CNS) was > 100 µM and the TGI (LXFL 529 NSCLC) was > 100 µM. For the same compound, the TGI (DLD-1 colon) was > 100 µM, the TGI (DMS 114 small cell lung) was > 100 µM and the TGI (CCRF-CEM leukemia) was > 100 µM. For the same compound, the TGI (M19-MEL melanoma) was > 100 µM and the TGI (CAKI-1 renal) was > 100 µM.

For `Clc1cccc2c1OCC1C(c3ccccc3)=NN(c3ccccc3)C21` (stereo not given), the TGI (HOP-18 NSCLC) was > 100 µM, the TGI (RXF-631 renal) was > 100 µM and the TGI (XF 498 CNS) was > 100 µM. The TGI (KM20L2 colon) was > 100 µM, the TGI (SNB-78 CNS) was > 100 µM and the TGI (SNB-19 CNS) was > 100 µM. For the same compound, the TGI (DMS 273 small cell lung) was > 100 µM, the TGI (LXFL 529 NSCLC) was > 100 µM and the TGI (DLD-1 colon) was > 100 µM. The TGI (DMS 114 small cell lung) was > 100 µM, the TGI (CCRF-CEM leukemia) was > 100 µM and the TGI (M19-MEL melanoma) was > 100 µM.

In the case of `CC1=C/C(=C2/N=C(N(C)C)SS2)C(C)=N1`, the TGI (HOP-18 NSCLC) was > 100 µM, the TGI (XF 498 CNS) was > 100 µM and the TGI (KM20L2 colon) was > 100 µM. For the same compound, the TGI (SNB-78 CNS) was > 100 µM, the TGI (SNB-19 CNS) was > 100 µM and the TGI (DMS 273 small cell lung) was > 100 µM. The TGI (LXFL 529 NSCLC) was > 100 µM, the TGI (DLD-1 colon) was > 100 µM and the TGI (DMS 114 small cell lung) was > 100 µM. For the same compound, the TGI (M19-MEL melanoma) was > 100 µM and the TGI (CAKI-1 renal) was > 100 µM.

With `CCN(CC)CCNC(=O)c1nn(-c2ccc(Cl)cc2)c2c1CCc1cc(OC)ccc1-2` the TGI (HOP-18 NSCLC) was 28.7 µM, the TGI (RXF-631 renal) was 3.16 µM and the TGI (XF 498 CNS) was 17.6 µM. For the same compound, the TGI (KM20L2 colon) was 3.32 µM, the TGI (SNB-78 CNS) was 24.2 µM and the TGI (SNB-19 CNS) was 23.2 µM. For the same compound, the TGI (DMS 273 small cell lung) was 5.98 µM, the TGI (LXFL 529 NSCLC) was 16.4 µM and the TGI (DLD-1 colon) was 14.2 µM. For the same compound, the TGI (DMS 114 small cell lung) was 6.68 µM, the TGI (CCRF-CEM leukemia) was 20.1 µM and the TGI (M19-MEL melanoma) was 7.11 µM. It also gave a TGI (CAKI-1 renal) of 19.9 µM.
